Laboratory results from publication PMC5218480 (PLoS ONE, 2017).

System: MV-4-11 cells
Assay: Gene expression microarray analysis (Affymetrix PrimeView) and GSEA
Type: cell-based, human
Set-up: RFU PODN (11730768_x_at) / Fold change /veh PODN (11730768_x_at) / RFU LINC00158 (11744669_a_at) / Fold change /veh LINC00158 (11744669_a_at) / RFU DUSP10 (11751237_a_at) / Fold change /veh DUSP10 (11751237_a_at) / RFU ID3 (11757404_x_at) / Fold change /veh ID3 (11757404_x_at) / RFU PLEKHG5 (11737974_s_at) / Fold change /veh PLEKHG5 (11737974_s_at) / RFU LRRC4B (11730491_at) / Fold change /veh LRRC4B (11730491_at) / RFU GIMAP4 (11747438_a_at) / Fold change /veh GIMAP4 (11747438_a_at) / RFU KRT8 (11758183_x_at) / Fold change /veh KRT8 (11758183_x_at) / RFU CNN1 (11734310_a_at) / Fold change /veh CNN1 (11734310_a_at) / RFU VPS37D (11726825_at) / Fold change /veh VPS37D (11726825_at) / RFU C10orf10 (11716522_x_at) / Fold change /veh C10orf10 (11716522_x_at) / RFU KIR2DL2 /// KIR2DL4 /// KIR2DL5A /// KIR2DL5B /// KIR2DS1 /// KIR2DS2 /// KIR2DS3 /// KIR2DS4 /// KIR3DL3 /// KIR3DL3 /// KIR3DS1 (11738374_at) / Fold change /veh KIR2DL2 /// KIR2DL4 /// KIR2DL5A /// KIR2DL5B /// KIR2DS1 /// KIR2DS2 /// KIR2DS3 /// KIR2DS4 /// KIR3DL3 /// KIR3DL3 /// KIR3DS1 (11738374_at) / RFU C1QL1 (11718748_at) / Fold change /veh C1QL1 (11718748_at) / RFU TMPRSS4 (11747572_a_at) / Fold change /veh TMPRSS4 (11747572_a_at) / RFU HAMP (11756126_x_at) / Fold change /veh HAMP (11756126_x_at) / RFU RNFT2 (11725882_a_at) / Fold change /veh RNFT2 (11725882_a_at) / RFU NR4A2 (11747474_a_at) / Fold change /veh NR4A2 (11747474_a_at) / RFU ABCC12 (11746883_a_at) / Fold change /veh ABCC12 (11746883_a_at) / RFU TMEM136 (11760407_x_at) / Fold change /veh TMEM136 (11760407_x_at) / RFU CLDN22 /// WWC2 (11732394_at) / Fold change /veh CLDN22 /// WWC2 (11732394_at) / RFU HLA-DPB1 (11760878_x_at) / Fold change /veh HLA-DPB1 (11760878_x_at) / RFU SPINT1 (11716480_a_at) / Fold change /veh SPINT1 (11716480_a_at) / RFU GAP43 (11754022_s_at) / Fold change /veh GAP43 (11754022_s_at) / RFU A4GNT (11735810_at) / Fold change /veh A4GNT (11735810_at) / RFU PRB3 (11715151_x_at) / Fold change /veh PRB3 (11715151_x_at) / RFU TUBB4B (11761932_at) / Fold change /veh TUBB4B (11761932_at) / RFU CAPN14 (11732068_a_at) / Fold change /veh CAPN14 (11732068_a_at) / RFU TMCC2 (11721928_a_at) / Fold change /veh TMCC2 (11721928_a_at) / RFU IRGQ (11745062_a_at) / Fold change /veh IRGQ (11745062_a_at) / RFU FAM174B (11720279_a_at) / Fold change /veh FAM174B (11720279_a_at) / RFU TMPRSS4 (11748680_a_at) / Fold change /veh TMPRSS4 (11748680_a_at) / RFU FAM212B (11763350_a_at) / Fold change /veh FAM212B (11763350_a_at) / RFU PLEKHG5 (11743358_a_at) / Fold change /veh PLEKHG5 (11743358_a_at) / RFU ZSCAN30 (11745921_a_at) / Fold change /veh ZSCAN30 (11745921_a_at) / RFU CMKLR1 (11741424_a_at) / Fold change /veh CMKLR1 (11741424_a_at) / RFU LOC101060620 /// MAPK8IP1 (11723275_at) / Fold change /veh LOC101060620 /// MAPK8IP1 (11723275_at) / RFU SPTSSB (11747773_x_at) / Fold change /veh SPTSSB (11747773_x_at) / RFU PRSS12 (11739890_at) / Fold change /veh PRSS12 (11739890_at) / RFU BIN1 (11741810_x_at) / Fold change /veh BIN1 (11741810_x_at) / RFU WNT11 (11732464_a_at) / Fold change /veh WNT11 (11732464_a_at) / RFU C10orf10 (11716521_a_at) / Fold change /veh C10orf10 (11716521_a_at) / RFU C5orf56 (11738089_at) / Fold change /veh C5orf56 (11738089_at) / RFU CYB561 (11721691_x_at) / Fold change /veh CYB561 (11721691_x_at) / RFU ANKRD19P (11752326_a_at) / Fold change /veh ANKRD19P (11752326_a_at) / RFU OR2T12 /// OR2T33 /// OR2T8 (11738714_s_at) / Fold change /veh OR2T12 /// OR2T33 /// OR2T8 (11738714_s_at) / RFU VCAN (11748164_a_at) / Fold change /veh VCAN (11748164_a_at) / RFU JSRP1 (11732532_at) / Fold change /veh JSRP1 (11732532_at) / RFU KRTAP10-11 (11738290_x_at) / Fold change /veh KRTAP10-11 (11738290_x_at) / RFU MYO3A (11730013_a_at) / Fold change /veh MYO3A (11730013_a_at) / RFU EBF3 (11725865_a_at) / Fold change /veh EBF3 (11725865_a_at) / RFU CAMK2N1 (11719241_x_at) / Fold change /veh CAMK2N1 (11719241_x_at) / RFU C5orf56 (11738088_a_at) / Fold change /veh C5orf56 (11738088_a_at) / RFU OLFML3 (11715873_a_at) / Fold change /veh OLFML3 (11715873_a_at) / RFU LOC100653217 /// NTM (11731650_a_at) / Fold change /veh LOC100653217 /// NTM (11731650_a_at) / RFU MAPK11 (11762145_a_at) / Fold change /veh MAPK11 (11762145_a_at) / RFU FIZ1 (11724087_x_at) / Fold change /veh FIZ1 (11724087_x_at) / RFU OASL (11726364_x_at) / Fold change /veh OASL (11726364_x_at) / RFU SOX15 (11748057_x_at) / Fold change /veh SOX15 (11748057_x_at) / RFU CD79A (11719716_a_at) / Fold change /veh CD79A (11719716_a_at) / RFU HIST1H1D (11736915_at) / Fold change /veh HIST1H1D (11736915_at) / RFU CASKIN2 (11723855_a_at) / Fold change /veh CASKIN2 (11723855_a_at) / RFU LOC730098 (11760151_x_at) / Fold change /veh LOC730098 (11760151_x_at) / RFU OR4N2 (11742367_at) / Fold change /veh OR4N2 (11742367_at) / RFU PRRT2 (11749266_a_at) / Fold change /veh PRRT2 (11749266_a_at) / RFU SNX32 (11753110_a_at) / Fold change /veh SNX32 (11753110_a_at) / RFU CDHR5 (11726645_a_at) / Fold change /veh CDHR5 (11726645_a_at) / RFU RCAN1 (11760418_a_at) / Fold change /veh RCAN1 (11760418_a_at) / RFU FAM167A (11723789_a_at) / Fold change /veh FAM167A (11723789_a_at) / RFU FAM26E (11764081_at) / Fold change /veh FAM26E (11764081_at) / RFU ISYNA1 (11749810_s_at) / Fold change /veh ISYNA1 (11749810_s_at) / RFU ACY1 (11761880_at) / Fold change /veh ACY1 (11761880_at) / RFU 11764098_at / Fold change /veh 11764098_at / RFU SAMD14 (11745864_x_at) / Fold change /veh SAMD14 (11745864_x_at) / RFU NPB (11741838_a_at) / Fold change /veh NPB (11741838_a_at) / RFU TMPRSS6 (11731388_a_at) / Fold change /veh TMPRSS6 (11731388_a_at) / RFU KRTAP10-2 (11738614_at) / Fold change /veh KRTAP10-2 (11738614_at) / RFU ARHGAP8 /// PRR5-ARHGAP8 (11727945_x_at) / Fold change /veh ARHGAP8 /// PRR5-ARHGAP8 (11727945_x_at) / RFU KRTAP5-7 /// NADSYN1 (11734609_at) / Fold change /veh KRTAP5-7 /// NADSYN1 (11734609_at) / RFU RASL12 (11751679_a_at) / Fold change /veh RASL12 (11751679_a_at) / RFU CDKN2B (11736163_a_at) / Fold change /veh CDKN2B (11736163_a_at) / RFU PRF1 (11729649_at) / Fold change /veh PRF1 (11729649_at) / RFU, ZNF638 /// ZNF638-IT1 / Fold change vs veh, ZNF638 /// ZNF638-IT1 / RFU, PANK3 / Fold change vs veh, PANK3 / RFU, SH3YL1 / Fold change vs veh, SH3YL1 / RFU, ZEB2 / Fold change vs veh, ZEB2 / RFU, NRIP1 / Fold change vs veh, NRIP1 / RFU, PTTG1IP / Fold change vs veh, PTTG1IP / RFU, CAPN2 / Fold change vs veh, CAPN2 / RFU, MED14 / Fold change vs veh, MED14 / RFU, SNORA58 / Fold change vs veh, SNORA58 / RFU, C1orf63 / Fold change vs veh, C1orf63 / RFU, LRRFIP1 / Fold change vs veh, LRRFIP1 / RFU, NDUFAF7 / Fold change vs veh, NDUFAF7 / RFU, SLC12A2 / Fold change vs veh, SLC12A2 / RFU, IBTK / Fold change vs veh, IBTK / RFU, ESF1 / Fold change vs veh, ESF1 / Fold change vs veh, TMEM50B / RFU, TAOK1 / Fold change vs veh, TAOK1 / RFU, ACBD3 / Fold change vs veh, ACBD3 / RFU, TMA16 / Fold change vs veh, TMA16 / RFU, RWDD3 / Fold change vs veh, RWDD3 / RFU, BCAT1 / Fold change vs veh, BCAT1 / RFU, EDEM3 / Fold change vs veh, EDEM3 / RFU, TMEM33 / Fold change vs veh, TMEM33 / RFU, WDR75 / Fold change vs veh, WDR75 / RFU, AHCTF1 / Fold change vs veh, AHCTF1 / RFU, TFRC / Fold change vs veh, TFRC / RFU, ZDHHC17 / Fold change vs veh, ZDHHC17 / RFU, NOM1 / Fold change vs veh, NOM1 / RFU, ARL8B / Fold change vs veh, ARL8B / RFU, ZBTB11 / Fold change vs veh, ZBTB11 / RFU, TAMM41 / Fold change vs veh, TAMM41 / RFU, KIAA1704 /// LOC100996395 / Fold change vs veh, KIAA1704 /// LOC100996395 / RFU, ING1 / Fold change vs veh, ING1 / RFU, TRMT61B / Fold change vs veh, TRMT61B / RFU, FUBP3 / Fold change vs veh, FUBP3 / RFU, TP53 / Fold change vs veh, TP53 / RFU, TNKS2 / Fold change vs veh, TNKS2 / RFU, ZFP14 / Fold change vs veh, ZFP14 / RFU, ACTR2 / Fold change vs veh, ACTR2 / RFU, PPP3R1 / Fold change vs veh, PPP3R1 / RFU, PIK3R1 / Fold change vs veh, PIK3R1 / RFU, HNRNPA1 / Fold change vs veh, HNRNPA1 / RFU, RNF170 / Fold change vs veh, RNF170 / RFU, ZNF28 / Fold change vs veh, ZNF28 / RFU, RNGTT / Fold change vs veh, RNGTT / RFU, OGT / Fold change vs veh, OGT / RFU, BRD1 / Fold change vs veh, BRD1 / RFU, MARS / Fold change vs veh, MARS / RFU, ZNF655 / Fold change vs veh, ZNF655 / RFU, FAHD1 / Fold change vs veh, FAHD1 / RFU, BDP1 / Fold change vs veh, BDP1 / RFU, LRRCC1 / Fold change vs veh, LRRCC1 / RFU, ARID1A / Fold change vs veh, ARID1A / RFU, ZNF146 / Fold change vs veh, ZNF146 / RFU, ZNF330 / Fold change vs veh, ZNF330 / RFU, GPN3 / Fold change vs veh, GPN3 / RFU, C9orf123 / Fold change vs veh, C9orf123 / RFU, N4BP2L2 / Fold change vs veh, N4BP2L2 / RFU, ARFIP1 / Fold change vs veh, ARFIP1 / RFU, FAM179B / Fold change vs veh, FAM179B / RFU, BCL10 / Fold change vs veh, BCL10 / RFU, UHRF1BP1L / Fold change vs veh, UHRF1BP1L / RFU, BET1 / Fold change vs veh, BET1 / RFU, CNOT2 / Fold change vs veh, CNOT2 / RFU, ZNF268 / Fold change vs veh, ZNF268 / Fold change vs veh, ZNF507 / RFU, DGCR2 / Fold change vs veh, DGCR2 / RFU, WDSUB1 / Fold change vs veh, WDSUB1 / Fold change vs veh, HSP90B1 /// MIR3652 / RFU, ADSS / Fold change vs veh, ADSS / RFU, GK / Fold change vs veh, GK / RFU, ZNF148 / Fold change vs veh, ZNF148 / RFU, TAF9 / Fold change vs veh, TAF9 / RFU, SLC1A5 / Fold change vs veh, SLC1A5 / RFU, SLMO2 / Fold change vs veh, SLMO2 / RFU, ABCC4 / Fold change vs veh, ABCC4 / RFU, LOC101060439 /// RAP1B / Fold change vs veh, LOC101060439 /// RAP1B / RFU, RFX7 / Fold change vs veh, RFX7 / RFU, GTPBP10 / Fold change vs veh, GTPBP10 / RFU, CNEP1R1 / Fold change vs veh, CNEP1R1 / RFU, BIVM-ERCC5 /// ERCC5 / Fold change vs veh, BIVM-ERCC5 /// ERCC5 / RFU, ILF3 / Fold change vs veh, ILF3 / RFU 11762660_at / Fold change /veh 11762660_at / RFU VCAN (11757783_s_at) / Fold change /veh VCAN (11757783_s_at) / RFU DDX43 (11728927_at) / Fold change /veh DDX43 (11728927_at) / RFU KRT8 (11758188_x_at) / Fold change /veh KRT8 (11758188_x_at) / RFU NKD1 (11759106_at) / Fold change /veh NKD1 (11759106_at) / RFU SRD5A1 (11742802_a_at) / Fold change /veh SRD5A1 (11742802_a_at) / RFU TPSAB1 /// TPSB2 (11721975_s_at) / Fold change /veh TPSAB1 /// TPSB2 (11721975_s_at) / RFU GSTM3 (11746129_a_at) / Fold change /veh GSTM3 (11746129_a_at) / RFU IL23R (11737362_x_at) / Fold change /veh IL23R (11737362_x_at) / RFU TMEM51 (11727254_a_at) / Fold change /veh TMEM51 (11727254_a_at) / RFU PIWIL2 (11732686_x_at) / Fold change /veh PIWIL2 (11732686_x_at) / RFU ORM1 (11744905_x_at) / Fold change /veh ORM1 (11744905_x_at) / RFU CCDC152 (11743942_at) / Fold change /veh CCDC152 (11743942_at) / RFU ECM1 (11717891_a_at) / Fold change /veh ECM1 (11717891_a_at) / RFU IL23R (11748794_a_at) / Fold change /veh IL23R (11748794_a_at) / RFU TNFAIP8L3 (11732012_x_at) / Fold change /veh TNFAIP8L3 (11732012_x_at) / RFU MBOAT4 (11741988_at) / Fold change /veh MBOAT4 (11741988_at) / RFU 11764193_at / Fold change /veh 11764193_at / RFU TMEM53 (11763286_at) / Fold change /veh TMEM53 (11763286_at) / RFU MAGEB2 (11727129_at) / Fold change /veh MAGEB2 (11727129_at) / RFU TMEM200A (11744735_a_at) / Fold change /veh TMEM200A (11744735_a_at) / RFU CCDC152 (11751479_a_at) / Fold change /veh CCDC152 (11751479_a_at) / RFU FAM211A (11726209_a_at) / Fold change /veh FAM211A (11726209_a_at) / RFU RGS16 (11746705_a_at) / Fold change /veh RGS16 (11746705_a_at) / RFU VCAN (11755009_s_at) / Fold change /veh VCAN (11755009_s_at) / RFU RHOB (11743442_s_at) / Fold change /veh RHOB (11743442_s_at) / RFU RGS16 (11720943_a_at) / Fold change /veh RGS16 (11720943_a_at) / RFU RGS16 (11720944_at) / Fold change /veh RGS16 (11720944_at) / RFU, VPS4B / Fold change vs veh, VPS4B / RFU, CREB1 / Fold change vs veh, CREB1 / RFU, DNAJC13 / Fold change vs veh, DNAJC13 / RFU, GNAQ / Fold change vs veh, GNAQ / RFU, CDK5R1 / Fold change vs veh, CDK5R1 / RFU, ZRANB3 / Fold change vs veh, ZRANB3 / RFU, CUL4A / Fold change vs veh, CUL4A / RFU, CCNY / Fold change vs veh, CCNY / RFU, UFL1 / Fold change vs veh, UFL1 / RFU, COG3 / Fold change vs veh, COG3 / RFU, DIAPH2 / Fold change vs veh, DIAPH2 / RFU, SKA2 / Fold change vs veh, SKA2 / RFU, AFF3 / Fold change vs veh, AFF3 / RFU, LMF1 / Fold change vs veh, LMF1 / RFU, IPO11 / Fold change vs veh, IPO11 / RFU, DFFB / Fold change vs veh, DFFB / RFU, FOXP1 / Fold change vs veh, FOXP1 / RFU, CARD8 / Fold change vs veh, CARD8 / RFU, STRN3 / Fold change vs veh, STRN3 / RFU, ADK / Fold change vs veh, ADK / RFU, RASSF2 / Fold change vs veh, RASSF2 / RFU, WIPF1 / Fold change vs veh, WIPF1 / RFU, LARP1B / Fold change vs veh, LARP1B / RFU, RASA1 / Fold change vs veh, RASA1 / RFU, RB1 / Fold change vs veh, RB1 / RFU, PPFIA1 / Fold change vs veh, PPFIA1 / RFU, MAT2A / Fold change vs veh, MAT2A / RFU, CCT5 / Fold change vs veh, CCT5 / RFU, WDR92 / Fold change vs veh, WDR92 / RFU, CUX1 / Fold change vs veh, CUX1 / RFU, TTC7A / Fold change vs veh, TTC7A / RFU, TMEM135 / Fold change vs veh, TMEM135 / RFU, DEPTOR / Fold change vs veh, DEPTOR / RFU, CPM / Fold change vs veh, CPM / RFU, DNAJB6 / Fold change vs veh, DNAJB6 / RFU, CACNA2D3 / Fold change vs veh, CACNA2D3 / RFU, DTX4 / Fold change vs veh, DTX4 / RFU, TFCP2 / Fold change vs veh, TFCP2 / RFU, GMCL1 /// GMCL1P1 / Fold change vs veh, GMCL1 /// GMCL1P1 / RFU, AEBP2 / Fold change vs veh, AEBP2 / RFU, SNHG1 /// SNORD22 /// SNORD25 /// SNORD26 /// SNORD27 /// SNORD28 /// SNORD29 /// SNORD31 / Fold change vs veh, SNHG1 /// SNORD22 /// SNORD25 /// SNORD26 /// SNORD27 /// SNORD28 /// SNORD29 /// SNORD31 / Fold change (Aza/veh), C12orf56 (ProbeSet 11735607_a_at) / Fold change (ACY-1035/veh), C12orf56 (ProbeSet 11735607_a_at) / Fold change (Aza/veh), FGFR1OP (ProbeSet 11751329_s_at) / Fold change (ACY-1035/veh), FGFR1OP (ProbeSet 11751329_s_at) / Fold change (Aza/veh), VPS36 (ProbeSet 11739960_a_at) / Fold change (ACY-1035/veh), VPS36 (ProbeSet 11739960_a_at) / RFU SYPL1 (11715823_x_at) / Fold change /veh SYPL1 (11715823_x_at) / RFU IGFBP7 (11715501_s_at) / Fold change /veh IGFBP7 (11715501_s_at) / RFU REEP3 (11722064_at) / Fold change /veh REEP3 (11722064_at) / RFU IGLL1 (11728026_x_at) / Fold change /veh IGLL1 (11728026_x_at): dose or concentration left out as unconfirmed
Conditions: MV-4-11 cells, 48 hours

Nc1ncn([C@@H]2O[C@H](CO)[C@@H](O)[C@H]2O)c(=O)n1 [azacitidine]
RFU KIR2DL2 /// KIR2DL4 /// KIR2DL5A /// KIR2DL5B /// KIR2DS1 /// KIR2DS2 /// KIR2DS3 /// KIR2DS4 /// KIR3DL3 /// KIR3DL3 /// KIR3DS1 (11738374_at): 10.60 RFU
